One test concerns the target CSK protein (Homo sapiens (Human), UniProt P41240). The test is described as follows: CSK Inhibition Assay. It counts as biochemical. The procedure:
Test compound was dissolved in DMSO at 10 mM. 45 uL of compound was transferred into a 384-well compound source plate (LABCYTE cat #P-05525) and serially diluted at 1:3 ratio to create a 11-point dilutions. The same volume of DMSO was adopted as high control. 20 nL of these compounds DMSO dilutes were dispensed into a new 384-well assay plate by Echo 550. […] 15 uL of kinase assay buffer containing CSK protein and substrate was transferred to assay plate and incubated at RT for 30 minutes. Kinase assay buffer supplemented with substrate peptides was employed as low control to monitor the background. 4 μM of ATP was prepared in kinase assay buffer and 5 μL of ATP solution was added to each well to start the reaction. The assay plate was incubated at 25° C. for 90 minutes and the reaction was stopped by adding 40 μL of 0.5 M EDTA.
(§1) Phosphorylated fluorescent-tagged peptides were differentiated from non-phosphorylated peptides by separating using Caliper EZ Reader II and the detection was directly converted to conversion ratio.
(§2) For estimation of IC50, the % substrate conversion values are transformed to % Inhibition Ratio by applying the following equation: […]

A further test deals with LCK protein (Homo sapiens (Human), UniProt P06239). The test is described as follows: LCK Inhibition Assay. In kind it is biochemical. The procedure: Test compound was dissolved in DMSO at 10 mM. 45 uL of compound was transfer into a 384-well compound source plate (LABCYTE cat #P-05525) and serially diluted at 1:3 ratio to create a 11-point dilutions. The same volume of DMSO was adopted as high control. 20 nL of these compounds DMSO dilutes were dispensed into a new 384-well assay plate by Echo 550. LCK protein (0.50 nM, Cama Biosciences, cat #08-170), florescent labeled substrate FLPeptide4 (2 μM, PerkinElmer, cat #760348) was prepared in kinase assay buffer (50 mM HEPES (pH 7.5), 10 mM MgCl2, 0.01% Brij-35, 2 mM DTT and 0.005 mg/ml BSA). 15 uL of kinase assay buffer containing LCK protein and substrate was transferred to assay plate and incubate at RT for 30 minutes. Kinase assay buffer supplemented with substrate peptides was employed as low control to monitor the background. 400 μM ATP was prepared in kinase assay buffer and 5 μL of ATP solution was added to each well to start the reaction. The assay plate was incubated at 25° C. for 90 minutes and the reaction was stopped by adding 40 μL of 0.5 M EDTA.
as §1, §2

The structures appear in SMILES notation. pIC50: −log10 of the molar value.

CSK protein, sequence (P41240 whole entry): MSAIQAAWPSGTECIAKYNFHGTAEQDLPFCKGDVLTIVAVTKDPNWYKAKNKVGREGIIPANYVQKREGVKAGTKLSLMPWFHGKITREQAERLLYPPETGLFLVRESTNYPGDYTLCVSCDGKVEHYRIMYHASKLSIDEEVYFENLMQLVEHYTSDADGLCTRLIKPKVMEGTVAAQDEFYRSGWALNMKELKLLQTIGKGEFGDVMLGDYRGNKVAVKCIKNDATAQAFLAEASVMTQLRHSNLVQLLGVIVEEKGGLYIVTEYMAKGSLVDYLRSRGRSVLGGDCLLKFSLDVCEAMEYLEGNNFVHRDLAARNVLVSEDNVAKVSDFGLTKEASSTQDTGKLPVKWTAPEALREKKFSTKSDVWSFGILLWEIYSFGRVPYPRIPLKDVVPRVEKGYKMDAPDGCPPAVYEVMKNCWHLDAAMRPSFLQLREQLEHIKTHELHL
LCK protein, sequence (P06239 whole entry): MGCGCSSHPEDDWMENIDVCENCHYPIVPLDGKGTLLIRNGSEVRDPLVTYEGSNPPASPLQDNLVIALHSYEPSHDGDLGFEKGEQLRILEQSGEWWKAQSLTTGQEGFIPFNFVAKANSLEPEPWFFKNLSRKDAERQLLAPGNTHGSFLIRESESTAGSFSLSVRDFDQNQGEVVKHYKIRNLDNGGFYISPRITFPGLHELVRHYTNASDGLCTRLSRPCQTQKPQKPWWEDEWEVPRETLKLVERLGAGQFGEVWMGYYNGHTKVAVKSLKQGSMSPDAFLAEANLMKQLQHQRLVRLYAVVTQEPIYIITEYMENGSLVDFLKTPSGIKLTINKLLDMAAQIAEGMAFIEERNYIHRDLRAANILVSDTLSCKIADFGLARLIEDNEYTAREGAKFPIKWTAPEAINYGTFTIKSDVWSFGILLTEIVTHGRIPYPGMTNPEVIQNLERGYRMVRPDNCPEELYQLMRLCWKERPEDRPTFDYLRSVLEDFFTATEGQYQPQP

On to `CN(C)c1ccn2c(-c3ccnc(N)n3)c(-c3cccc(NS(=O)(=O)c4c(F)cccc4F)c3F)nc2c1` [Compound 95], for which the negative logarithm of the IC50 (pIC50) – broadly, −log10 of the IC50, conventionally taken in molar units – on CSK protein was 7.15; on LCK protein, under 6.00.

With `O=S(=O)(Nc1cccc(-c2nc(-c3cncc(F)c3)sc2-c2ccnc(NCCO)n2)c1F)c1c(F)cccc1F` [Compound 66], the pIC50 against CSK protein was 7.71; against LCK protein, under 6.00. Turning to `COC(=O)N[C@@H](C)CNc1nccc(-c2sc(-c3ccccc3)nc2-c2cccc(NS(=O)(=O)c3c(F)cccc3F)c2F)n1` [Compound 16], the pIC50 at CSK protein was 7.20; at LCK protein it was under 6.00. On to `CNc1nccc(-c2sc(N3CCOCC3)nc2-c2cccc(NS(=O)(=O)c3c(F)cccc3F)c2F)n1` [Compound 116], for which the values for the pIC50 at CSK protein and at LCK protein were 7.87 and 6.00 to 7.00, respectively. For `Cc1ccc(F)c(S(=O)(=O)Nc2cccc(-c3nc(-c4cc(F)ccn4)sc3-c3ccnc(N)n3)c2F)c1F` [Compound 52], the pIC50 against CSK protein was 7.71; against LCK protein, under 6.00.

For the compound `CNc1nccc(-c2c(-c3cccc(NS(=O)(=O)c4c(F)ccc(C)c4F)c3F)nc3ccc(F)cn23)n1` [Compound 106], the results for the pIC50 against CSK protein and against LCK protein were 7.04 and under 6.00, respectively. Consider `CCn1c(-c2ccccc2)nc(-c2cccc(NS(=O)(=O)c3c(F)cccc3F)c2F)c1-c1ccnc(N)n1` [compound 88], for which the pIC50 on CSK protein is under 5.00.

For the compound `Nc1nccc(-c2sc(-c3ccccc3)nc2-c2cccc(NS(=O)(=O)c3c(F)cccc3F)c2F)n1` [compound 2], the values for the pIC50 against CSK protein and against LCK protein were 7.36 and under 6.00, respectively. The corresponding values for `CCOc1ccn2c(-c3ccnc(N)n3)c(-c3cccc(NS(=O)(=O)c4c(F)cccc4F)c3F)nc2c1` [Compound 97] are 7.01 and under 6.00. Regarding `O=S(=O)(Nc1cccc(-c2nc(-c3ccc(F)cn3)sc2-c2ccnc(NC3CCCC3)n2)c1F)c1c(F)cccc1F` [Compound 31], on CSK protein, the pIC50 was under 5.00. Turning to `NCCNc1nccc(-c2sc(-c3cncc(F)c3)nc2-c2cccc(NS(=O)(=O)c3c(F)cccc3F)c2F)n1` [Compound 67], the pIC50 at CSK protein was 6.21; at LCK protein it was under 6.00. In the case of `COc1ccn2c(-c3ccnc(NC4CC4)n3)c(-c3cccc(NS(=O)(=O)c4c(Cl)cccc4Cl)c3F)nc2c1` [Compound 158], the pIC50 was 6.77 at CSK protein and under 6.00 on LCK protein. Turning to `CN1CCN(c2ccc(Nc3nccc(-c4cn(C5CCCCC5)nc4-c4cccc(NS(=O)(=O)c5c(F)cccc5F)c4F)n3)cn2)CC1` [compound 108], the pIC50 against CSK protein is 8.60; against LCK protein, over 7.00. For `CNc1nccc(-c2sc(N3CCCC3)nc2-c2cccc(NS(=O)(=O)c3c(F)cccc3F)c2F)n1` [Compound 128], the values for the pIC50 on CSK protein and against LCK protein were 7.92 and under 6.00, respectively.

Turning to `Nc1ncc(-c2nc(-c3cccc(NS(=O)(=O)c4c(F)cccc4F)c3F)c(-c3ccnc(N)n3)s2)cn1` [compound 6], the pIC50 at CSK protein is 7.70; against LCK protein, 6.00 to 7.00. As for `CC(C)Oc1ccn2c(-c3ccnc(N)n3)c(-c3cccc(NS(=O)(=O)c4c(F)cccc4F)c3F)nc2c1` [Compound 104], the figures for the pIC50 on CSK protein and on LCK protein were 6.87 and under 6.00, respectively. `O=S(=O)(Nc1cccc(-c2nn(C3CCCCC3)cc2-c2ccnc(Nc3ccc(N4CCOCC4)nc3)n2)c1F)c1c(F)cccc1F` [Compound 109]: the pIC50 at CSK protein is 8.34; against LCK protein, over 7.00. Turning to `CNc1nccc(-c2sc(-c3ccc(F)cn3)nc2-c2cccc(NS(=O)(=O)c3c(Cl)ccc(C)c3Cl)c2F)n1` [Compound 126], the pIC50 at CSK protein was 7.52; against LCK protein, under 6.00.

With `CN1CCN(c2ccc(Nc3nccc(-c4sc(C(C)(C)C)nc4-c4cccc(NS(=O)(=O)c5c(F)cccc5F)c4F)n3)cn2)CC1` [Compound 119], the values for the pIC50 at CSK protein and against LCK protein were 8.43 and over 7.00, respectively. With `CNc1nccc(-c2sc(-c3cccc(F)c3)nc2-c2cccc(NS(=O)(=O)c3c(F)ccc(C)c3F)c2F)n1` [Compound 71], the negative logarithm of the IC50 (pIC50) against CSK protein is 7.38; against LCK protein, under 6.00.

As to `CNc1nccc(-c2sc(-c3cncc(F)c3)nc2-c2cc(C)cc(NS(=O)(=O)c3c(F)cccc3F)c2F)n1` [compound 154], the pIC50 against CSK protein is 7.90; on LCK protein it was 6.00 to 7.00. Take `CNc1nccc(-c2c(-c3cccc(NS(=O)(=O)c4c(Cl)ccc(C)c4Cl)c3F)nc3cc(OC)ccn23)n1` [Compound 146]: the figures for the negative-log IC50 (pIC50) against CSK protein and against LCK protein were 7.38 and under 6.00, respectively.

Consider `Cc1ccc(Cl)c(S(=O)(=O)Nc2cccc(-c3nc(-c4cncc(F)c4)sc3-c3ccnc(NCCO)n3)c2F)c1Cl` [Compound 138], for which the results for the pIC50 against CSK protein and on LCK protein were 8.07 and under 6.00, respectively.

For `Cc1ccc(F)c(S(=O)(=O)Nc2cccc(-c3nc(N(C)C)sc3-c3ccnc(NC4CC4)n3)c2F)c1F` [Compound 183], the figures for the pIC50 against CSK protein and at LCK protein were 7.95 and under 6.00, respectively. For the compound `CNc1nccc(-c2sc(N(C)C)nc2-c2cccc(NS(=O)(=O)c3c(F)ccc(C)c3F)c2F)n1` [Compound 180], the pIC50 against CSK protein was 7.89; against LCK protein it was under 6.00. As to `COc1ccc(-c2nc(-c3cccc(NS(=O)(=O)c4c(F)cccc4F)c3F)c(-c3ccnc(N)n3)s2)nc1` [Compound 30], the pIC50 against CSK protein is 7.39; against LCK protein, 6.00 to 7.00. Take `COc1ccn2c(-c3ccnc(NCCO)n3)c(-c3cccc(NS(=O)(=O)c4c(F)ccc(C)c4F)c3F)nc2c1` [Compound 130]: the pIC50 was 6.67 on CSK protein and under 6.00 at LCK protein. For the compound `O=S(=O)(Nc1cccc(-c2nc(N3CCC3)sc2-c2ccnc(NC3CC3)n2)c1F)c1c(F)ccc(Cl)c1F` [Compound 186], the pIC50 was 8.39 at CSK protein and under 6.00 against LCK protein. `CCn1cc(-c2nc(-c3cccc(NS(=O)(=O)c4c(F)cccc4F)c3F)c(-c3ccnc(N)n3)s2)cn1` [Compound 10]: the pIC50 was 7.52 on CSK protein and 6.00 to 7.00 against LCK protein.

As for `COc1ccccc1Nc1nccc(-c2sc(-c3ccc(F)cn3)nc2-c2cccc(NS(=O)(=O)c3c(F)cccc3F)c2F)n1` [Compound 33], the pIC50 was 6.23 against CSK protein and under 6.00 on LCK protein. The like results for `Cc1ncc(-c2nc(-c3cccc(NS(=O)(=O)c4c(Cl)ccc(C)c4Cl)c3F)c(-c3ccnc(NCCO)n3)s2)cn1` [Compound 152] were, in that order, 8.22 and under 6.00. Consider `COc1ccn2c(-c3ccnc(NC4CC4)n3)c(-c3cccc(NS(=O)(=O)c4c(Cl)ccc(C)c4Cl)c3F)nc2c1` [Compound 160], for which the pIC50 is 6.95 at CSK protein and under 6.00 against LCK protein. Regarding `CC(C)(C)c1nc(-c2cccc(NS(=O)(=O)c3c(F)cccc3F)c2F)c(-c2ccnc(N)n2)s1` [Dabrafenib, reference compound], at CSK protein, the pIC50 was about 7.30. The “selectivity over LCK” value at CSK protein (CSK inhibition over LCK) is on record as “about 10 fold”. Compound `Cn1c(-c2ccccc2)nc(-c2cccc(NS(=O)(=O)c3c(F)cccc3F)c2F)c1-c1ccnc(N)n1` [Compound 87] had a pIC50 against CSK protein of 6.02. The same measure, in the same setting: under `Nc1nccc(-c2sc(-c3ccccc3)nc2-c2cccc(NS(=O)(=O)c3c(F)cccc3F)n2)n1` [Compound 26] stands under 5.00; under `C[C@@H](Nc1nccc(-c2sc(-c3ccccc3)nc2-c2cccc(NS(=O)(=O)c3c(F)cccc3F)c2F)n1)C(N)=O` [Compound 49], 6.46. Turning to `Cn1c(-c2ccccc2)nc(-c2ccnc(N)n2)c1-c1cccc(NS(=O)(=O)c2c(F)cccc2F)c1F` [Compound 86], the pIC50 at CSK protein is 5.91. As to `Nc1nccc(-c2sc(-c3ccccc3)nc2-c2cccc(NS(=O)(=O)c3ccc4ocnc4c3)c2F)n1` [compound 57], the pIC50 against CSK protein is 6.60. At LCK protein, `COc1cc(NS(=O)(=O)c2c(F)cccc2F)cc(-c2nc(-c3cncc(F)c3)sc2-c2ccnc(N)n2)c1` [Compound 21] had a pIC50 of 6.00 to 7.00. Consider `O=S(=O)(Nc1cccc(-c2nc(-c3ccccc3)sc2-c2ccnc(NC3CCNCC3)n2)c1F)c1c(F)cccc1F` [compound 8], for which the pIC50 on CSK protein is under 5.00. In the case of `COc1ccn2c(-c3ccnc(N)n3)c(-c3cccc(NS(=O)(=O)c4c(F)ccc(C)c4F)c3F)nc2c1` [Compound 99], the pIC50 against CSK protein is 6.98. The compound `Nc1nccc(-c2sc(-c3cccc(N4CCC4)n3)nc2-c2cccc(NS(=O)(=O)c3c(F)cccc3F)c2F)n1` [compound 1] gave a pIC50 at CSK protein of 5.98.

On to `CN(C)c1nccc(-c2sc(-c3ccccc3)nc2-c2cccc(NS(=O)(=O)c3c(F)cccc3F)c2F)n1` [compound 37], for which, on CSK protein, the pIC50 was under 5.00. Compound `CCn1c(-c2ccccc2)nc(-c2ccnc(N)n2)c1-c1cccc(NS(=O)(=O)c2c(F)cccc2F)c1F` [Compound 89] gave a pIC50 on CSK protein of 6.49.

(Values after patent US12427146B2, “C-terminal SRC kinase inhibitors” (INVENTISBIO CO., LTD., priority 2018, dated 2025).)
